Data on nine compounds can be found in patent US10004701B2, “Methods and compositions for treating infection” (UNIVERSITY OF ROCHESTER, priority 2012, dated 2018).

Holding throughout (assay): AK assay 384-well format, Prestwick library screening
The test system of experiment [1] is E. cloacae. The format is cell-based, Enterobacter cloacae. The settings on record: 50 μM final drug concentration; for fold induction at 50 µM: Enterobacter cloacae, 3 h.
For experiment [2], the system named is A. baumannii strain 98-37-09. Format: cell-based, Acinetobacter baumannii. The note with it: 50 μM final drug concentration; for fold induction at 50 µM: Acinetobacter baumannii, 983709, 3 h.
Experiment [3] concerns K. pneumoniae. The format is cell-based, Klebsiella pneumoniae. The settings on record: 50 μM final drug concentration; for fold induction at 50 µM: Klebsiella pneumoniae, 3 h.
Experiment [4] has as its system E. faecium. The format is cell-based, Enterococcus faecium. The note with it: 50 μM final drug concentration; for fold induction at 50 µM: Enterococcus faecium, 3 h.
Experiment [5] relates to E. coli. Format: cell-based, Escherichia coli. The note with it: 50 μM final drug concentration; for fold induction at 50 µM: Escherichia coli, 3 h.
Experiment [6] has as its system P. aeruginosa. The format is cell-based, Pseudomonas aeruginosa. The note with it: 50 μM final drug concentration; for fold induction at 50 µM: Pseudomonas aeruginosa, 3 h.
For experiment [7], the system named is S. aureus strain USA300-0114. Format: cell-based, Staphylococcus aureus. The note with it: 50 μM final drug concentration; for fold induction at 50 µM: Staphylococcus aureus, USA300, 3 h.
Setting [8] is: planktonic, cutoff for positive-scoring molecules 3-fold increase.
Where [9] appears, read: 384-well format, cutoff for positive-scoring molecules 3-fold increase, read-out: AK-based Prestwick Library Screening Results, E. cloacae (increase in extracellular AK activity).
The mark [10] stands for this setting: 384-well format, cutoff for positive-scoring molecules 3-fold increase, read-out: AK-based Prestwick Library Screening Results, A. baumannii (increase in extracellular AK activity).
The mark [11] stands for this setting: 384-well format, cutoff for positive-scoring molecules 3-fold increase, read-out: AK-based Prestwick Library Screening Results, K. pneumoniae (increase in extracellular AK activity).
The mark [12] stands for this setting: 384-well format, cutoff for positive-scoring molecules 3-fold increase, read-out: AK-based Prestwick Library Screening Results, E. faecium (increase in extracellular AK activity).
The mark [13] stands for this setting: 384-well format, cutoff for positive-scoring molecules 3-fold increase, read-out: AK-based Prestwick Library Screening Results, E. coli (increase in extracellular AK activity).
[14] abbreviates: 384-well format, cutoff for positive-scoring molecules 3-fold increase, read-out: AK-based Prestwick Library Screening Results, P. aeruginosa (increase in extracellular AK activity).
Setting [15] is: 384-well format, cutoff for positive-scoring molecules 3-fold increase, read-out: AK-based Prestwick Library Screening Results, S. aureus (increase in extracellular AK activity).

Where a name gives a salt, the structure may show the parent alone. Read-outs that look alike come from different tables or passages of the source.

Turning to `CC[N+]1(C)CCCC(OC(=O)C(O)(c2ccccc2)c2ccccc2)C1` (stereo not drawn) [Pipenzolate bromide], the fold induction at 50 µM was 0.9 in experiment [1] (planktonic, cutoff for positive-scoring molecules 3-fold increase, read-out: AK-based Prestwick Library Screening Results, E. cloacae (fold increase in extracellular AK activity)); 0.7 in experiment [2] (planktonic, cutoff for positive-scoring molecules 3-fold increase, read-out: AK-based Prestwick Library Screening Results, A. baumannii (fold increase in extracellular AK activity)); 0.7 in experiment [3] (planktonic, cutoff for positive-scoring molecules 3-fold increase, read-out: AK-based Prestwick Library Screening Results, K. pneumoniae (fold increase in extracellular AK activity)); 0.9 in experiment [4] (planktonic, cutoff for positive-scoring molecules 3-fold increase, read-out: AK-based Prestwick Library Screening Results, E. faecium (fold increase in extracellular AK activity)); 0.9 in experiment [5] (planktonic, cutoff for positive-scoring molecules 3-fold increase, read-out: AK-based Prestwick Library Screening Results, E. coli (fold increase in extracellular AK activity)); 0.8 in experiment [6] (planktonic, cutoff for positive-scoring molecules 3-fold increase, read-out: AK-based Prestwick Library Screening Results, P. aeruginosa (fold increase in extracellular AK activity)). The fold induction at 50 µM in experiment [7] (planktonic, cutoff for positive-scoring molecules 3-fold increase, read-out: AK-based Prestwick Library Screening Results, S. aureus (fold increase in extracellular AK activity)) was determined as 0.8.
Regarding `CC(C)(C)NCC(O)c1cc(Cl)c(N)c(Cl)c1` (stereo not drawn) [Clenbuterol hydrochloride], the fold induction at 50 µM was found to be 0.9 in experiment [1] (planktonic E. cloacae, […], read-out: AK-based Prestwick Library Screening Results, E. cloacae (increase in extracellular AK activity)); 0.8 in experiment [2] (planktonic A. baumannii, […], read-out: AK-based Prestwick Library Screening Results, A. baumannii (increase in extracellular AK activity)); 0.7 in experiment [3] (planktonic K. pneumoniae, […], read-out: AK-based Prestwick Library Screening Results, K. pneumoniae (increase in extracellular AK activity)); 0.9 in experiment [4] (planktonic E. faecium, […], read-out: AK-based Prestwick Library Screening Results, E. faecium (increase in extracellular AK activity)); 0.8 in experiment [5] (planktonic E. coli, […], read-out: AK-based Prestwick Library Screening Results, E. coli (increase in extracellular AK activity)); 0.8 in experiment [6] (planktonic P. aeruginosa, […], read-out: AK-based Prestwick Library Screening Results, P. aeruginosa (increase in extracellular AK activity)). Further, the fold induction at 50 µM in experiment [7] (planktonic S. aureus, […], read-out: AK-based Prestwick Library Screening Results, S. aureus (increase in extracellular AK activity)) was 0.7.
As for `CCN(CC)CCc1nc(-c2ccccc2)no1.O=C(O)CC(O)(CC(=O)O)C(=O)O` [Oxalamine citrate salt], the “AK-based Prestwick Library Screening Results, E. cloacae (fold increase in extracellular AK activity)” value in experiment [1] (setting [8]) is 1.2. In experiment [2] (setting [8]), the “AK-based Prestwick Library Screening Results, A. baumannii (fold increase in extracellular AK activity)” value is listed as 0.8. In addition, in experiment [3] (setting [8]), the “AK-based Prestwick Library Screening Results, K. pneumoniae (fold increase in extracellular AK activity)” value worked out at 0.7. Moreover, the “AK-based Prestwick Library Screening Results, E. faecium (fold increase in extracellular AK activity)” value in experiment [4] (setting [8]) came out at 0.8. In experiment [5] (setting [8]), the “AK-based Prestwick Library Screening Results, E. coli (fold increase in extracellular AK activity)” value is 0.9. The “AK-based Prestwick Library Screening Results, P. aeruginosa (fold increase in extracellular AK activity)” value in experiment [6] (setting [8]) turned out to be 0.9. Further, the “AK-based Prestwick Library Screening Results, S. aureus (fold increase in extracellular AK activity)” value in experiment [7] (setting [8]) is listed as 0.8.
Take `CCOc1cc(CC(=O)N[C@@H](CC(C)C)c2ccccc2N2CCCCC2)ccc1C(=O)O` [Repaglinide]: the fold induction at 50 µM in experiment [1] (cutoff for positive-scoring molecules 3-fold increase, read-out: AK-based Prestwick Library Screening Results, E. cloacae (fold increase in extracellular AK activity)) worked out at 0.4; in experiment [2] (cutoff for positive-scoring molecules 3-fold increase, read-out: AK-based Prestwick Library Screening Results, A. baumannii (fold increase in extracellular AK activity)), 0.4; in experiment [3] (cutoff for positive-scoring molecules 3-fold increase, read-out: AK-based Prestwick Library Screening Results, K. pneumoniae (fold increase in extracellular AK activity)), 0.4; in experiment [4] (cutoff for positive-scoring molecules 3-fold increase, read-out: AK-based Prestwick Library Screening Results, E. faecium (fold increase in extracellular AK activity)), 0.9; in experiment [5] (cutoff for positive-scoring molecules 3-fold increase, read-out: AK-based Prestwick Library Screening Results, E. coli (fold increase in extracellular AK activity)) it was 0.4; in experiment [6] (cutoff for positive-scoring molecules 3-fold increase, read-out: AK-based Prestwick Library Screening Results, P. aeruginosa (fold increase in extracellular AK activity)) it was 0.4. Further, the fold induction at 50 µM in experiment [7] (cutoff for positive-scoring molecules 3-fold increase, read-out: AK-based Prestwick Library Screening Results, S. aureus (fold increase in extracellular AK activity)) is 0.3.
As for `CC1=C(/C=C/C(C)=C/C=C/C(C)=C\C(=O)O)C(C)(C)CCC1` [Isotretinoin], the fold induction at 50 µM in experiment [1] (setting [9]) came to 0.9; in experiment [2] (setting [10]), 0.7; in experiment [3] (setting [11]), 0.6; in experiment [4] (setting [12]), 1; in experiment [5] (setting [13]), 0.7; in experiment [6] (setting [14]) it was 0.8. Also, the fold induction at 50 µM in experiment [7] (setting [15]) turned out to be 0.6.
For `CC(N/C(=N\C#N)Nc1ccncc1)C(C)(C)C` (stereo not drawn) [Pinacidil], the fold induction at 50 µM in experiment [1] (setting [9]) was found to be 0.6; in experiment [2] (setting [10]), 0.5; in experiment [3] (setting [11]), 0.5; in experiment [4] (setting [12]) it was 0.9; in experiment [5] (setting [13]), 0.5; in experiment [6] (setting [14]), 0.5. Besides, in experiment [7] (setting [15]), the fold induction at 50 µM came out at 0.5.
Consider Pyrantel tartrate, for which the “AK-based Prestwick Library Screening Results: E. cloacae (increase in extracellular AK activity)” value in experiment [1] (planktonic E. cloacae, 384-well, cutoff for positive-scoring molecules 3-fold increase) came out at 1.4. The “AK-based Prestwick Library Screening Results: A. baumannii (increase in extracellular AK activity)” value in experiment [2] (planktonic A. baumannii, 384-well, cutoff for positive-scoring molecules 3-fold increase) came to 1.1. The “AK-based Prestwick Library Screening Results: K. pneumoniae (increase in extracellular AK activity)” value in experiment [3] (planktonic K. pneumoniae, 384-well, cutoff for positive-scoring molecules 3-fold increase) was 0.9. In experiment [4] (planktonic E. faecium, 384-well, cutoff for positive-scoring molecules 3-fold increase), the “AK-based Prestwick Library Screening Results: E. faecium (increase in extracellular AK activity)” value was found to be 1.1. Moreover, the “AK-based Prestwick Library Screening Results: E. coli (increase in extracellular AK activity)” value in experiment [5] (planktonic E. coli, 384-well, cutoff for positive-scoring molecules 3-fold increase) amounted to 1.3. In addition, the “AK-based Prestwick Library Screening Results: P. aeruginosa (increase in extracellular AK activity)” value in experiment [6] (planktonic P. aeruginosa, 384-well, cutoff for positive-scoring molecules 3-fold increase) came out at 1.2. Also, the “AK-based Prestwick Library Screening Results: S. aureus (increase in extracellular AK activity)” value in experiment [7] (planktonic S. aureus, 384-well, cutoff for positive-scoring molecules 3-fold increase) is recorded as 1.2.
As to `CC(C)(C)NCC(O)c1ccc(O)c(CO)c1` (stereo not drawn) [Salbutamol], the fold induction at 50 µM in experiment [1] (setting [9]) was found to be 1.4; in experiment [2] (setting [10]) it was 0.9; in experiment [3] (setting [11]), 0.7; in experiment [4] (setting [12]), 1; in experiment [5] (setting [13]), 0.9; in experiment [6] (setting [14]), 0.8. For the same compound, the fold induction at 50 µM in experiment [7] (setting [15]) came out at 0.8.
For `COc1ccc([C@@H]2Sc3ccccc3N(CCN(C)C)C(=O)[C@@H]2OC(C)=O)cc1` [Diltiazem hydrochloride], the fold induction at 50 µM came to 1.5 in experiment [1] (planktonic E. cloacae, 384-well, cutoff for positive-scoring molecules 3-fold increase, read-out: AK-based Prestwick Library Screening Results: E. cloacae (increase in extracellular AK activity)); 1 in experiment [2] (planktonic A. baumannii, 384-well, cutoff for positive-scoring molecules 3-fold increase, read-out: AK-based Prestwick Library Screening Results: A. baumannii (increase in extracellular AK activity)); 1 in experiment [3] (planktonic K. pneumoniae, 384-well, cutoff for positive-scoring molecules 3-fold increase, read-out: AK-based Prestwick Library Screening Results: K. pneumoniae (increase in extracellular AK activity)); 0.9 in experiment [4] (planktonic E. faecium, 384-well, cutoff for positive-scoring molecules 3-fold increase, read-out: AK-based Prestwick Library Screening Results: E. faecium (increase in extracellular AK activity)); 1 in experiment [5] (planktonic E. coli, 384-well, cutoff for positive-scoring molecules 3-fold increase, read-out: AK-based Prestwick Library Screening Results: E. coli (increase in extracellular AK activity)); 0.9 in experiment [6] (planktonic P. aeruginosa, 384-well, cutoff for positive-scoring molecules 3-fold increase, read-out: AK-based Prestwick Library Screening Results: P. aeruginosa (increase in extracellular AK activity)). Also, in experiment [7] (planktonic S. aureus, 384-well, cutoff for positive-scoring molecules 3-fold increase, read-out: AK-based Prestwick Library Screening Results: S. aureus (increase in extracellular AK activity)), the fold induction at 50 µM was 0.8.
